Source: patent US7964341B2, “Human endogenous retrovirus K102 with foamy-virus-like properties and uses thereof” (priority 2005, dated 2011)

Tested on: HERV-K102 replication (cDNA production) in cultured cord blood cells
Experiment: Screening for agents able to modulate HERV-K102 replication (cDNA production) in cultured cord blood cells, real time PCR ddCt ratio
Format: cell-based, human
Details: for effect on HERV-K102 replication in cultured CB cells: approximately 10^-6 M or equivalent, harvested day 5
Source text: First we wished to show in normal lymphocytes that there are increased levels of HERV-K102 pol DNA over and above genomic when HERV-K102 associated particles are made. For this we extracted DNA and then performed the HERV-K102 ddCt ratio. Please see FIG. 15 for the sequences and location of the forward and reverse primers and the probe used for the real time PCR. […] We developed a ddCt ratio real time PCR method (relative quantitation) which takes the difference between HERV-K102 pol and 18 s RNA Ct's (delta Ct), and subtracts this from the same performed on commercial normal adult genomic DNA (male) (the delta delta Ct). Then we use the algorithm 2−(ddCt) to calculate the relative ratio of HERV-K102 to genomic DNA. This index when elevated above normal ratios (see Table 3 for these ratios) for fluids with contaminating cells (eg plasma and saliva) indicates an excess of non-genomic DNA templates and could be taken as a surrogate marker for putative particles in the sample. […] Since real time PCR is so sensitive, and we were only interested in the DNA copy number of HERV-K102 pol, we subsequently used the Qiagen DNA Mini kit for DNA extractions of plasma.
Commercially available master mix buffer can be purchased with or without Amperase-UNG a highly purified enzyme Uracil-N-Glycosylase, which when included in the buffer for the real time PCR will digest any DNA or cDNA templates containing uracil. […] Thus, if any isolated DNA becomes digested it must be non-genomic.
Finally we investigated certain natural products, drugs and peptide cytokines for their ability to regulate HERV-K replication such as measured in CB cells (Table 7). These agents were tested at approximately 10^−6 M or equivalent. We harvested the study on day 5. […] Tuftsin is naturally cleaved from the FC region of IgG and is considered an immunoenhancing substance and the 1/5000 concentration is usually employed to show its enhancing effects on the activation of monocytes.
Cord blood (CB) isolation. Under aseptic conditions, cord blood was collected into heparinized tubes and peripheral blood mononuclear cells (PBMC) were prepared as follows: the blood was centrifuged at 2700 rpm for 10 minutes, and the buffy coat placed in 5 mls of media (defined as IMDM plus 0.2% penicillin/gentamycin). The mixture was layered onto Ficoll-Paque (Pharmacia #17-0840-03) in a ratio of 1/3 Ficoll to blood suspension. The tubes were centrifuged 30 minutes at 1600 rpm.

[1] = Tuftsin 1/5000, cord blood Day 5
[2] = cord blood Day 5, uracil-N-glycosylase in master mix, agents at approximately 10^-6 M or equivalent
[3] = cord blood harvested Day 5, agents at approximately 10^-6 M or equivalent, Day 5 control 2.19
[4] = cord blood harvested Day 5, agents at approximately 10^-6 M or equivalent, relative to Day 5 control ddCt ratio

Tuftsin
Level of Control Activity (%) (Tuftsin 1/500, cord blood Day 5): 65.7% | HERV-K102 ddCt Ratio (Tuftsin 1/500, cord blood Day 5, control 2.19): 1.44 | Level of Control Activity (%) [1]: 189% | ddCt performed with UNG [1]: 2.10 | HERV-K102 ddCt Ratio (Tuftsin 1/5000, cord blood Day 5, control 2.19): 4.14 | effect on HERV-K102 replication (Tuftsin at high levels (1/500)): inhibited HERV-K102 replication | effect on HERV-K102 replication (Tuftsin at low levels (1/5000)): enhanced HERV-K102 replication | effect on HERV-BZU activation (depending on concentration, refers to Table 7): can enhance or inhibit HERV-BZU activation

CC1=C(c2ccc(O)cc2)[C@H](c2ccc(OCCN3CCCCC3)cc2)Oc2cc(O)ccc21 [EM652]
effect on HERV-K102 replication in cultured CB cells: enhanced HERV-K102 replication | ddCt performed with UNG [2]: 2.06 (100%) | HERV-K102 ddCt Ratio [3]: 3.07 | Level of Control Activity (%) [4]: 140%

C[C@]12CC[C@@H]3c4ccc(O)cc4CC[C@H]3[C@@H]1CC[C@@H]2O [E2, estradiol]
Level of Control Activity (%) [4]: 133%

C[C@]12CC[C@H](O)CC1=CC[C@@H]1[C@@H]2CC[C@]2(C)C(=O)CC[C@@H]12 [DHEA, dihydroepiandrosterone]
effect on HERV-K102 replication in cultured CB cells: enhanced HERV-K102 replication | HERV-K102 ddCt Ratio [3]: 2.60 | Level of Control Activity (%) [4]: 119%

CC/C(=C(\c1ccccc1)c1ccc(OCCN(C)C)cc1)c1ccccc1 [Tamoxifen, tamoxifen]
effect on HERV-K102 replication in cultured CB cells: enhanced HERV-K102 replication | ddCt performed with UNG [2]: 2.64 (63%) | HERV-K102 ddCt Ratio [3]: 3.43 | Level of Control Activity (%) [4]: 157%
